# Where a name gives a salt, the structure may show the parent alone. Read-outs that look alike come from different tables or passages of the source.
# Assays:
# [1] = biological target: Ca2+ Channel L-Type, (Dihydropyridine) (Rattus norvegicus, UniProt P22002); experiment: biochemical; details: read-out: % inhibition of the specific radioligand binding
# [2] = biological target: T1, H3 (histaminergic receptor) (Homo sapiens, UniProt Q9Y5N1); experiment: radioligand competition binding, [3H]N-α-methyl-histamine
# T1 construct: Eurofins
# [3] = biological target: T2, 5-HT6 (Homo sapiens, UniProt P50406); experiment: radioligand competition binding, [3H]LSD
# T2 construct: Eurofins
# [4] = biological target: T3, M4 (muscarinic receptor) (Homo sapiens, UniProt P08173); experiment: radioligand competition binding, [3H]4-DAMP
# T3 construct: Eurofins
# T3 sequence (P08173 1-479): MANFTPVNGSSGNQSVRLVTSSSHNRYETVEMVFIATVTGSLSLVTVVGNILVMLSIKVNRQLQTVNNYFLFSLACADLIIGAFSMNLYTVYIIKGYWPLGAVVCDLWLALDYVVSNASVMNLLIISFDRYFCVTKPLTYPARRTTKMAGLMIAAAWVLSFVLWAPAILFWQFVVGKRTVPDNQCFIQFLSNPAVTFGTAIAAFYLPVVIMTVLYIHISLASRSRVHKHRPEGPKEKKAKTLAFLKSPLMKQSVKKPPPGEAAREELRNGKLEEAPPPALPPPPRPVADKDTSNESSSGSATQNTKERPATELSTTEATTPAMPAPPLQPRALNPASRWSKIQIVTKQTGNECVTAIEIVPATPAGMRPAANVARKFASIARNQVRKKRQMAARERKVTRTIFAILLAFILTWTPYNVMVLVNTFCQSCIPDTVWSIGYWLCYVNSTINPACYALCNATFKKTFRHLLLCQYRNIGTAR
# [5] = biological target: T4, NMDA receptor (Glycine) (Rattus norvegicus, UniProt P35439); experiment: radioligand competition binding, [3H]MDL 105,519
# T4 construct: Eurofins
# [6] = biological target: T5, Adrenergic receptor α1B (Homo sapiens, UniProt P35368); experiment: radioligand competition binding, [3H]Prazosin
# T5 construct: Eurofins
# [7] = system: GABAA receptor (benzod.); experiment: radioligand competition binding, [3H]Flunitrazepam; design: species or system rat
# [8] = biological target: T6, 5-HT7 (Homo sapiens, UniProt P34969); experiment: radioligand competition binding, [3H]LSD
# T6 construct: Eurofins
# [9] = system: GABAA receptor (GABA); experiment: radioligand competition binding, [3H]Muscimol; design: species or system rat
# [10] = biological target: T7, DAT (Homo sapiens, UniProt Q01959); experiment: radioligand competition binding, [3H]BTCP
# T7 construct: Eurofins
# [11] = biological target: T8, Opioid receptor δ (Homo sapiens, UniProt P41143); experiment: radioligand competition binding, [3H] Naltrindole
# T8 construct: Eurofins
# [12] = biological target: T9, M1 (muscarinic receptor) (Homo sapiens, UniProt P11229); experiment: radioligand competition binding, [3H]pirenzepine
# T9 construct: Eurofins
# T9 sequence (P11229 1-460): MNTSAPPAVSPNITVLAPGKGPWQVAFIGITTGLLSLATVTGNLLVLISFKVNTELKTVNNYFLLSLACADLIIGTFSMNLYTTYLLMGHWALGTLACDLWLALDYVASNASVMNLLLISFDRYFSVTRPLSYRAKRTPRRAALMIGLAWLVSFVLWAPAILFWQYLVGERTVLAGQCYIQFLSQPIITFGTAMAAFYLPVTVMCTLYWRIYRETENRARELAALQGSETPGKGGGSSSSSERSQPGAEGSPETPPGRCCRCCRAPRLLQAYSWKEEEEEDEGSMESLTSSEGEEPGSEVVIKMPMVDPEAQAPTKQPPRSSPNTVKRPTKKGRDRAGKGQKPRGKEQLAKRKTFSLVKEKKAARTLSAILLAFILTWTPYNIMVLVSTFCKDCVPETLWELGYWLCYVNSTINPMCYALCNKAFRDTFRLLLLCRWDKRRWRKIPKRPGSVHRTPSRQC
# [13] = system: Imidazoline receptor I2; experiment: radioligand competition binding, [3H]Idazoxan; design: species or system rat
# [14] = biological target: T10, 5-HT4e (Homo sapiens, UniProt Q13639); experiment: radioligand competition binding, [3H]GR 113808
# T10 construct: Eurofins
# [15] = LogP / log D determination, 1-octanol/phosphate buffer; assay type: physicochemical
# Description: LogP Log D log D log D log D log D log D log D
# Phosphate buffer (PB) with the pH ranging from 1.8 to 12.0 and Octanol saturated with water was used. 2 μL of 10 mM DMSO stock solution of test and control compounds was aliquoted into tubes in duplicate. Added 149 μL of PB (pH 1.8, 2.5, 4.5, 7.4, 9.5,11.0 and 12.0)-Saturated […]
# was added, respectively. Each of the tubes was vigorously mixed for 2 minutes and then shook for 1 hour at a speed of 800 rpm at room temperature. Following centrifugation at 4000 rpm for 5 minutes at room temperature, appropriate volume of buffer layer samples and 1-octanol layer samples was aliquoted. These samples were diluted and detected by using LC -MS/MS method without running a calibration curve.
# The log D values were calculated with the following equation:
# (also on this page, place not known: temperature , 1 -octanol Log Doctanol/buffer = log( Mean Octanol Layer Peak Area Ratio ∗ Octanol Layer Dilution Factor Mean Buffer Layer Peak Area Ratio ∗ Buffer Layer Dilution Factor) […]
# (1 picture or pasted object on this page, not shown here)
# [16] = biological target: T11, Tachykinin receptor NK3 (Homo sapiens, UniProt P29371); experiment: radioligand competition binding, [125I]MePhe7-Neurokinin B
# T11 construct: Eurofins (contract laboratory)
# [17] = biological target: T12, H2 (histaminergic receptor) (Homo sapiens, UniProt P25021); experiment: radioligand competition binding, [125I]APT
# T12 construct: Eurofins
# [18] = biological target: T13, Bradykinin receptor B1 (Homo sapiens, UniProt P46663); experiment: radioligand competition binding, [3H](Des-Arg10, Leu9)-Kallidin
# T13 construct: Eurofins
# [19] = estimated from the % inhibition data
# [20] = read-out: % inhibition of the specific radioligand binding
# T6 sequence (P34969 whole entry): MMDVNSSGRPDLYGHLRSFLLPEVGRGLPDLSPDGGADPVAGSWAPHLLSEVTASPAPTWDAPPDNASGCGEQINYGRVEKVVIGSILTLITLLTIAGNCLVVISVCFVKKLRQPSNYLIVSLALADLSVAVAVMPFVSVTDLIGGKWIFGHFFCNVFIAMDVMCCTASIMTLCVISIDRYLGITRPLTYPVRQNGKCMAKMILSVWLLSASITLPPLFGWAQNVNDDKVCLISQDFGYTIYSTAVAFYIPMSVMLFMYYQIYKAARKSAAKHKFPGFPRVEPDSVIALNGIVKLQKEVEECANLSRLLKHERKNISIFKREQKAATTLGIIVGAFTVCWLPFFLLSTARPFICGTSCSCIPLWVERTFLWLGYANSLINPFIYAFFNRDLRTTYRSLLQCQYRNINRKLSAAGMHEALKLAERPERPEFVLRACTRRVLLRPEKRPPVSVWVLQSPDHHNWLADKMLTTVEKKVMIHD
# T2 sequence (P50406 whole entry): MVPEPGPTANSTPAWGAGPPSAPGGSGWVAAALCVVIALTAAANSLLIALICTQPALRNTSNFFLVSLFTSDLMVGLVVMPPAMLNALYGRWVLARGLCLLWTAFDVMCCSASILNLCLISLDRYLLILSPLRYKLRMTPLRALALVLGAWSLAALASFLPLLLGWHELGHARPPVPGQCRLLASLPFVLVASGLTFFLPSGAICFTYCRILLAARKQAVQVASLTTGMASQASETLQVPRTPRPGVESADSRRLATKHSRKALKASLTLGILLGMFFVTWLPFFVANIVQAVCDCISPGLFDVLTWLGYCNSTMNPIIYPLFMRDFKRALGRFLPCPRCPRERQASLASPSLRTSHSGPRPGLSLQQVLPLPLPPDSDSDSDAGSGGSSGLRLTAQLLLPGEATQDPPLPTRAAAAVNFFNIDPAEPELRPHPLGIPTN
# T1 sequence (Q9Y5N1 whole entry): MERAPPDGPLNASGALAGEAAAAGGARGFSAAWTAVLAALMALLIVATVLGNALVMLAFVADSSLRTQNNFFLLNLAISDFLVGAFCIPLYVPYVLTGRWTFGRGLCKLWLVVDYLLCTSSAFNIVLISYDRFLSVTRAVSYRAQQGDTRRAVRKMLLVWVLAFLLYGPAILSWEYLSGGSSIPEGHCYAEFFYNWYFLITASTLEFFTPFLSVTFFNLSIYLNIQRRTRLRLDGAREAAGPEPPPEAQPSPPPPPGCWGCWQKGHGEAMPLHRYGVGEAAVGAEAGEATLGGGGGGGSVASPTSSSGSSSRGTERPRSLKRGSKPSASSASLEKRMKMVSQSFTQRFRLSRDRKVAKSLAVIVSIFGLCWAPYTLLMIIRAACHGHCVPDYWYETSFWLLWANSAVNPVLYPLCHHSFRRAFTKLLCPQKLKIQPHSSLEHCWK
# T8 sequence (P41143 whole entry): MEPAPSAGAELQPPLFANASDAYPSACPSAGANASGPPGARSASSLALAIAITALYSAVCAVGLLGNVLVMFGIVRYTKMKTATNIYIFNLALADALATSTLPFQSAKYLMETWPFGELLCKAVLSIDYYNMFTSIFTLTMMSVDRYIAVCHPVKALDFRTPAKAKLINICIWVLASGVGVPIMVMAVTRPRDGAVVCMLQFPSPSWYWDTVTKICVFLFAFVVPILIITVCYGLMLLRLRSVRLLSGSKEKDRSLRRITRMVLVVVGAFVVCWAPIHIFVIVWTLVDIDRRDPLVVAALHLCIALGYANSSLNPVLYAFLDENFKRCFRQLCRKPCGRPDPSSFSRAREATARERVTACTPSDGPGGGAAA
# T12 sequence (P25021 whole entry): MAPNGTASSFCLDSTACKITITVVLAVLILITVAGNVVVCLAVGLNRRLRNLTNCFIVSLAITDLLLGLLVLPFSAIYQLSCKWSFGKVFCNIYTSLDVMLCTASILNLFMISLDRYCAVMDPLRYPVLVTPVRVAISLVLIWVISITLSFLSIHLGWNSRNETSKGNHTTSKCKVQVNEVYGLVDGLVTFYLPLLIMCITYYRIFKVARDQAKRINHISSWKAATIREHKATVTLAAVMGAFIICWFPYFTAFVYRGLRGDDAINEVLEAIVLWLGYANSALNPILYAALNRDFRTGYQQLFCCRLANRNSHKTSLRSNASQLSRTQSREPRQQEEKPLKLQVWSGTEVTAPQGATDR
# T7 sequence (Q01959 whole entry): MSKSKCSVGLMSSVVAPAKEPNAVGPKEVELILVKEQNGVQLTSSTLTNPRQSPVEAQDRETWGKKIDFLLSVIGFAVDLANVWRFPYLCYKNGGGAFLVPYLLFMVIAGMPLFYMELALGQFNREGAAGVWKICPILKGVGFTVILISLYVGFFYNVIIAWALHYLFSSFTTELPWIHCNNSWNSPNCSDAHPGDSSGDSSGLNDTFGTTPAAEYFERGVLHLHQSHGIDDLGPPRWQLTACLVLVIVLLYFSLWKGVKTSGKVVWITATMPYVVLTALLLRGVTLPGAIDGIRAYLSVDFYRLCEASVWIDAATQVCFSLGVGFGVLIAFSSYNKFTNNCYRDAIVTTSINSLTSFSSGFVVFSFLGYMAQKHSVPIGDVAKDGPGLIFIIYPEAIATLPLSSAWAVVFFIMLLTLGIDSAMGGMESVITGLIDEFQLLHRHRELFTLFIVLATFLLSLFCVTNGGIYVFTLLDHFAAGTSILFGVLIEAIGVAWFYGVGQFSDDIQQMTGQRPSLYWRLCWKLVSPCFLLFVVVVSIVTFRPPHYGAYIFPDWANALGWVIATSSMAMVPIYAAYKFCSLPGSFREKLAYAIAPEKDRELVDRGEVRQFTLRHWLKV
# T5 sequence (P35368 whole entry): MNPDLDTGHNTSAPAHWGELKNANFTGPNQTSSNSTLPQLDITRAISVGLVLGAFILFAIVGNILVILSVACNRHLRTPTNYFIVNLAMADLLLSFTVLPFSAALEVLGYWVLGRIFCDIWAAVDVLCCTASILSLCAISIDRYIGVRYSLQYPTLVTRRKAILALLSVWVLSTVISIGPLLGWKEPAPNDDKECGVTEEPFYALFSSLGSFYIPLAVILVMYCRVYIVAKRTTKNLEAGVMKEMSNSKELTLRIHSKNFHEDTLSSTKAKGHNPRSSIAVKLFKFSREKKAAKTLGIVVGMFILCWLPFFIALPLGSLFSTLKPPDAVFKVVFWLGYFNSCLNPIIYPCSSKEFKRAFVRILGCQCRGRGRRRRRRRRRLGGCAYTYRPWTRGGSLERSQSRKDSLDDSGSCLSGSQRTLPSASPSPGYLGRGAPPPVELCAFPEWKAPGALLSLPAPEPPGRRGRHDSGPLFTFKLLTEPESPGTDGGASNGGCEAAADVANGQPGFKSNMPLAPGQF
# T10 sequence (Q13639 1-378 isoform Q13639-5): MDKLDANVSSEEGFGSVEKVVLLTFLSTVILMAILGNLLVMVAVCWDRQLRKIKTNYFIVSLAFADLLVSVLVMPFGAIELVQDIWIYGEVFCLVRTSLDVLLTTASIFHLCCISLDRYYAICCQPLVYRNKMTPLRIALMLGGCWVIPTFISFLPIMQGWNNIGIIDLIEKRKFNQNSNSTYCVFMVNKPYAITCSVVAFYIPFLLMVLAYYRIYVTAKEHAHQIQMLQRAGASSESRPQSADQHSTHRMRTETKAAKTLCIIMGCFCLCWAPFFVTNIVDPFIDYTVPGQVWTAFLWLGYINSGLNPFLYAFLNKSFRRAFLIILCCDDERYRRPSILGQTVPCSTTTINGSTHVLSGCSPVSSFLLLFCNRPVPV
# T13 sequence (P46663 whole entry): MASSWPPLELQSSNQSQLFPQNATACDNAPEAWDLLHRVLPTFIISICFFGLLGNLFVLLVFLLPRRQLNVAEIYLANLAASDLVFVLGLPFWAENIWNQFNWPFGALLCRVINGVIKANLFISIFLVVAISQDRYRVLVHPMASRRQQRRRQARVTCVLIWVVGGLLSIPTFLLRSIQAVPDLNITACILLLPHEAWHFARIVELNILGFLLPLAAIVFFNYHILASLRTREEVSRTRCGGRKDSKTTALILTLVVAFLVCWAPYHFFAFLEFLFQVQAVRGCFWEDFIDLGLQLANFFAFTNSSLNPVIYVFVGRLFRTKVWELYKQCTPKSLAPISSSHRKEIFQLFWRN
# T11 sequence (P29371 whole entry): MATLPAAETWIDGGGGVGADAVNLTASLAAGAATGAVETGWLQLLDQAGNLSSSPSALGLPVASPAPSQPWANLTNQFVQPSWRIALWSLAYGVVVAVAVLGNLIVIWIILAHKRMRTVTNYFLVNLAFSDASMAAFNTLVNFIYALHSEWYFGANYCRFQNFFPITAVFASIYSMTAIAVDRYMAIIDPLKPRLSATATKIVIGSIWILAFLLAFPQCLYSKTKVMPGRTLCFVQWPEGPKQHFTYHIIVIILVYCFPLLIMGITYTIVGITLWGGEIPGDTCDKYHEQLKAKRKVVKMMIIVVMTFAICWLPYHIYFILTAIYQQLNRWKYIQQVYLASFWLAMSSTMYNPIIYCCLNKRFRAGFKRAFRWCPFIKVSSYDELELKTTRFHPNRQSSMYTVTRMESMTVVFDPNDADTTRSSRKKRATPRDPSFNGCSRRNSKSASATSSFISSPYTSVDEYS
compound,measurement,setting,value
"COc1cc(C(F)(F)F)c(OC)cc1[C@@H]1CCCNC1 [(S)-11, 3-(2,5-Dimethoxy-4-(trifluoromethyl)phenyl)piperidine Hydrochloride]",inhibition at 10 µM,[1],-6%
same,IC50,[2]; [19],> 10 µM
same,inhibition at 10 µM,[2]; [20],11%
same,IC50,[3]; [19],1 to 10 µM
same,inhibition at 1 µM,[3]; [20],24%
same,inhibition at 10 µM,[3]; [20],77%
same,IC50,[4]; [19],1 to 10 µM
same,inhibition at 0.1 µM,[4]; [20],9%
same,inhibition at 1 µM,[4]; [20],38%
same,inhibition at 10 µM,[4]; [20],80%
same,IC50,[5]; [19],> 10 µM
same,inhibition at 10 µM,[5]; [20],-20%
same,IC50,[6]; [19],> 10 µM
same,inhibition at 10 µM,[6]; [20],33%
same,% inhibition of the specific radioligand binding,"[7]; (S)-11 10 μM, n=1",-14%
same,IC50,[7]; [19],> 10 µM
same,IC50,[8]; [19],1 to 10 µM
same,inhibition at 1 µM,[8]; [20],17%
same,inhibition at 10 µM,[8]; [20],62%
same,% inhibition of the specific radioligand binding,"[9]; (S)-11 10 μM, n=1",1%
same,IC50,[9]; [19],> 10 µM
same,IC50,[10]; [19],> 10 µM
same,inhibition at 10 µM,[10]; [20],12%
same,IC50,[11]; [19],> 10 µM
same,inhibition at 10 µM,[11]; [20],18%
same,IC50,[12]; [19],~1 µM
same,inhibition at 1 µM,[12]; [20],51%
same,inhibition at 10 µM,[12]; [20],90%
same,% inhibition of the specific radioligand binding,"[13]; (S)-11 10 μM, n=1",17%
same,IC50,[13]; [19],> 10 µM
same,IC50,[14]; [19],> 10 µM
same,inhibition at 10 µM,[14]; [20],30%
same,logP at 1 h,[15]; main text and Figure 6,3.45
same,logD,"[15]; pH 1.8, read-out: Log D (pH 1.8)",-0.815
same,logD,"[15]; pH 2.5, read-out: log D (pH2.5)",-0.536
same,logD,"[15]; pH 4.5, read-out: log D (pH4.5)",-0.376
same,logD,"[15]; pH 7.4, read-out: log D (pH7.4)",0.659
same,logD,"[15]; pH 9.5, read-out: log D (pH9.5)",1.99
same,logD,"[15]; pH 11.0, read-out: log D (pH11.0)",3.4
same,logD,"[15]; pH 12.0, read-out: log D (pH12.0)",3.5
same,IC50,[16]; [19],> 10 µM
same,inhibition at 10 µM,[16]; [20],14%
same,IC50,[17]; [19],> 10 µM
same,inhibition at 10 µM,[17]; [20],10%
same,IC50,[18]; [19],> 10 µM
same,inhibition at 10 µM,[18]; [20],12%

# — PMC11089506 (Journal of Medicinal Chemistry, 2024)
